Test results as given in patent publication US20220257592A1, “METHODS OF TREATING CANCER” (HOFFMANN-LA ROCHE INC., priority 2019, published 2022).
Marks after values point to notes of the source that are not given here.

Assay: Clinical trial safety, integrated analysis of ALKA, STARTRK-1, STARTRK-2, STARTRK-NG (N=504)
Description: The following categories of frequency have been used: very common ≥1/10, common (≥1/100 to <1/10), uncommon (≥1/1,000 to <1/100), rare (≥1/10,000 to <1/1000), very rare (<1/10,000).

[1] = patients less than 65 years old

## CN1CCN(c2ccc(C(=O)Nc3n[nH]c4ccc(Cc5cc(F)cc(F)c5)cc34)c(NC3CCOCC3)c2)CC1 [Entrectinib, N-[5-(3,5-difluorobenzyl)-1H-indazol-3-yl]-4-(4-methyl-piperazin-1-yl)-2-(tetrahydro-pyran-4-ylamino)-benzamide]
N = 382
  Laboratory: Hyperuricemia, Change from Baseline All Grades: 50.8%
  Laboratory: Hyperuricemia, Change from Baseline to Grade 3 or 4: 6.8%
N = 457
  Laboratory: Decreased Neutrophils, Change from Baseline All Grades: 27.8%
  Laboratory: Decreased Neutrophils, Change from Baseline to Grade 3 or 4: 6.3%
N = 478
  Laboratory: Increased AST, Change from Baseline All Grades: 43.3%
  Laboratory: Increased AST, Change from Baseline to Grade 3 or 4: 3.3%
N = 479
  Laboratory: Increased ALT, Change from Baseline All Grades: 38.4%
  Laboratory: Increased ALT, Change from Baseline to Grade 3 or 4: 3.1%
N = 480
  Laboratory: Increased Blood Creatinine, Change from Baseline All Grades: 94.8%
  Laboratory: Increased Blood Creatinine, Change from Baseline to Grade 3 or 4: 3.1%
N = 487
  Laboratory: Decreased Hemoglobin, Change from Baseline All Grades: 65.7%
  Laboratory: Decreased Hemoglobin, Change from Baseline to Grade 3 or 4: 9.2%
N = 504
  ALT increased, All Grades: 16.1%
  ALT increased, Frequency Category (All Grades): very common (very common ≥1/10)
  ALT increased, Grade ≥3: 3.4%
  AST increased, All Grades: 17.5%
  AST increased, Frequency Category (All Grades): very common (very common ≥1/10)
  AST increased, Grade ≥3: 3.6%
  Abdominal pain, All Grades: 11.1%
  Abdominal pain, Frequency Category (All Grades): very common (very common ≥1/10)
  Abdominal pain, Grade ≥3: 0.6%
  Anemia, All Grades: 28.2%
  Anemia, Frequency Category (All Grades): very common (very common ≥1/10)
  Anemia, Grade ≥3: 9.7%
  Arthralgia, All Grades: 19.0%
  Arthralgia, Frequency Category (All Grades): very common (very common ≥1/10)
  Arthralgia, Grade ≥3: 0.6%
  Ataxia, Frequency Category (All Grades): very common (very common ≥1/10)
  Ataxia, Grade ≥3: 0.8%
  Blood creatinine increased, All Grades: 25.4%
  Blood creatinine increased, Frequency Category (All Grades): very common (very common ≥1/10)
  Blood creatinine increased, Grade ≥3: 0.6%
  Cognitive Disorders, All Grades: 24.2%
  Cognitive Disorders, Frequency Category (All Grades): very common (very common ≥1/10)
  Cognitive Disorders, Grade ≥3: 4.4%
  Congestive Heart Failure, All Grades: 3.0%
  Congestive Heart Failure, Frequency Category (All Grades): common (common (≥1/100 to <1/10))
  Congestive Heart Failure, Grade ≥3: 2.2%
  Constipation, All Grades: 42.9%
  Constipation, Frequency Category (All Grades): very common (very common ≥1/10)
  Constipation, Grade ≥3: 0.4%
  Cough, All Grades: 21.4%
  Cough, Frequency Category (All Grades): very common (very common ≥1/10)
  Cough, Grade ≥3: 0.6%
  Decreased appetite, All Grades: 11.9%
  Decreased appetite, Frequency Category (All Grades): very common (very common ≥1/10)
  Decreased appetite, Grade ≥3: 0.2%
  Dehydration, All Grades: 7.9%
  Dehydration, Frequency Category (All Grades): common (common (≥1/100 to <1/10))
  Dehydration, Grade ≥3: 1.0%
  Diarrhea, All Grades: 33.5%
  Diarrhea, Frequency Category (All Grades): very common (very common ≥1/10)
  Diarrhea, Grade ≥3: 2.6%
  Dizziness, All Grades: 39.7%
  Dizziness, Frequency Category (All Grades): very common (very common ≥1/10)
  Dizziness, Grade ≥3: 1.2%
  Dysasthesia, All Grades: 29.0%
  Dysasthesia, Frequency Category (All Grades): very common (very common ≥1/10)
  Dysasthesia, Grade ≥3: 0.2%
  Dysgeusia, All Grades: 42.3%
  Dysgeusia, Frequency Category (All Grades): very common (very common ≥1/10)
  Dysgeusia, Grade ≥3: 0.4%
  Dysphagia, All Grades: 10.1%
  Dysphagia, Frequency Category (All Grades): very common (very common ≥1/10)
  Dysphagia, Grade ≥3: 0.4%
  Dyspnea, All Grades: 27.0%
  Dyspnea, Frequency Category (All Grades): very common (very common ≥1/10)
  Edema, All Grades: 37.3%
  Edema, Frequency Category (All Grades): very common (very common ≥1/10)
  Edema, Grade ≥3: 1.4%
  Electrocardiogram QT prolonged, All Grades: 2.0%
  Electrocardiogram QT prolonged, Grade ≥3: 0.6%
  Fatigue, All Grades: 45.0%
  Fatigue, Frequency Category (All Grades): very common (very common ≥1/10)
  Fatigue, Grade ≥3: 5.0%
  Fractures, All Grades: 6.2%
  Fractures, Frequency Category (All Grades): common (common (≥1/100 to <1/10))
  Fractures, Grade ≥3: 2.4%
  Headache, All Grades: 17.5%
  Headache, Frequency Category (All Grades): very common (very common ≥1/10)
  Headache, Grade ≥3: 1.0%
  Hyperuricemia, All Grades: 9.1%
  Hyperuricemia, Frequency Category (All Grades): common (common (≥1/100 to <1/10))
  Hyperuricemia, Grade ≥3: 1.8%
  Hypotension, All Grades: 16.5%
  Hypotension, Frequency Category (All Grades): very common (very common ≥1/10)
  Hypotension, Grade ≥3: 2.4%
  Lung infection, All Grades: 13.1%
  Lung infection, Frequency Category (All Grades): very common (very common ≥1/10)
  Mood disorders, All Grades: 9.1%
  Mood disorders, Frequency Category (All Grades): common (common (≥1/100 to <1/10))
  Mood disorders, Grade ≥3: 0.6%
  Muscular weakness, All Grades: 12.3%
  Muscular weakness, Frequency Category (All Grades): very common (very common ≥1/10)
  Muscular weakness, Grade ≥3: 1.2%
  Myalgia, All Grades: 19.6%
  Myalgia, Frequency Category (All Grades): very common (very common ≥1/10)
  Myalgia, Grade ≥3: 0.6%
  Nausea, All Grades: 32.1%
  Nausea, Frequency Category (All Grades): very common (very common ≥1/10)
  Nausea, Grade ≥3: 0.8%
  Neutropenia, All Grades: 11.3%
  Neutropenia, Frequency Category (All Grades): very common (very common ≥1/10)
  Neutropenia, Grade ≥3: 4.4%
  Pain, All Grades: 24.4%
  Pain, Frequency Category (All Grades): very common (very common ≥1/10)
  Pain, Grade ≥3: 1.6%
  Peripheral Sensory Neuropathy, Frequency Category (All Grades): very common (very common ≥1/10)
  Peripheral sensory neuropathy, All Grades: 15.7%
  Peripheral sensory neuropathy, Grade ≥3: 1.0%
  Pyrexia, All Grades: 20.0%
  Pyrexia, Frequency Category (All Grades): very common (very common ≥1/10)
  Pyrexia, Grade ≥3: 0.8%
  Rash, All Grades: 11.5%
  Rash, Frequency Category (All Grades): very common (very common ≥1/10)
  Rash, Grade ≥3: 1.4%
  Sleep disturbances, All Grades: 13.5%
  Sleep disturbances, Frequency Category (All Grades): very common (very common ≥1/10)
  Sleep disturbances, Grade ≥3: 0.4%
  Syncope, All Grades: 4.6%
  Syncope, Frequency Category (All Grades): common (common (≥1/100 to <1/10))
  Syncope, Grade ≥3: 3.0%
  Tumor lysis syndrome, All Grades: 0.2%
  Tumor lysis syndrome, Frequency Category (All Grades): uncommon (uncommon (≥1/1,000 to <1/100))
  Urinary tract infection, All Grades: 12.7%
  Urinary tract infection, Frequency Category (All Grades): very common (very common ≥1/10)
  Urinary tract infection, Grade ≥3: 2.6%
  Vision Blurred, Frequency Category (All Grades): very common (very common ≥1/10)
  Vision Blurred, Grade ≥3: 0.4%
  Vomiting, All Grades: 23.2%
  Vomiting, Frequency Category (All Grades): very common (very common ≥1/10)
  Vomiting, Grade ≥3: 1.2%
  Weight increased, All Grades: 26.4%
  Weight increased, Frequency Category (All Grades): very common (very common ≥1/10)
  Weight increased, Grade ≥3: 7.3%
N = 504, ataxia, balance disorder, gait disturbances
  Ataxia, All Grades: 15.7%
N = 504, diplopia, vision blurred, visual impairment
  Vision Blurred, All Grades: 11.9%
Adult patients
  Entrectinib interrupted due to fractures: 36.0%
  Grade 3 or 4 bone fractures: 1.9%
  Grade 3 or 4 headache: 0.6%
  Grade 3 or 4 neutropenia: 3.4%
  Grade 3 or 4 weight increased: 6.9%
Adult patients (N=475)
  Fractures: 5.3%
adults, range: 0.26 months to 18.5 months
  Median time to fracture: 3.42 months
Elderly (65 years or older)
  Ataxia: 23.8%
  Blood creatinine increased: 31.5%
  Dizziness: 48.5%
  Hypotension: 21.5%
human, in vivo
  Bilateral femoral neck fractures: 2 pediatric patients
  Cognitive disorders, Grade 3 events: 4.4%
  Cognitive symptoms: amnesia: 2.8%
  Cognitive symptoms: cognitive disorders: 6.3%
  Cognitive symptoms: confusional state: 7.3%
  Cognitive symptoms: delirium: 0.8%
  Cognitive symptoms: disturbance in attention: 3.8%
  Cognitive symptoms: hallucination: 1.0%
  Cognitive symptoms: hallucination visual: 0.4%
  Cognitive symptoms: memory impairment: 4.2%
  Cognitive symptoms: mental disorder: 0.2%
  Cognitive symptoms: mental status changes: 1.2%
  Discontinuation due to fractures: No patients discontinued
  Eye disorders: diplopia: 2.6%
  Eye disorders: vision blurred: 8.5%
  Eye disorders: visual impairment: 1.6%
  Overall safety profile in elderly patients vs patients younger than 65 years: similar
  Patients recovered from ataxia: 67.1%
  Patients recovered from peripheral neuropathy: 55.7%
  Patients recovered from the eye disorder events: 61.7%
human, in vivo, 5.5 months
  Dyspnea, Grade ≥3: 5.8* %
  Lung infection, Grade ≥3: 6.0* %
  Tumor lysis syndrome, Grade ≥3: 0.2* %
[1]
  Ataxia: 12.8%
  Blood creatinine increased: 23.3%
  Dizziness: 36.6%
  Hypotension: 14.7%
Patients with at least one post-baseline ECG assessment, 12 patients
  QTcF interval of ≥500 ms: 2.8%
Patients with at least one post-baseline ECG assessment, 17 patients
  QTcF interval prolongation of >60 ms after starting entrectinib: 4.0%
Patients with brain metastases at baseline
  Cognitive disorder events: 29.7%
Patients without brain metastases
  Cognitive disorder events: 23.1%
Pediatric patients
  Entrectinib interrupted due to fractures: 33.3%
  Grade 3 or 4 bone fractures: 12.5%
  Grade 3 or 4 headache: 6.3%
  Grade 3 or 4 neutropenia: 28.1%
  Grade 3 or 4 weight increased: 21.9%
Pediatric patients (N=29)
  Fractures: 20.7%
Pediatric patients, range: 1.77 months to 7.39 months
  Median time to fracture: 3.38 months
Pediatric population (1/29)
  Disturbance in attention of Grade 1 severity: 3.4%
Range 0.03 months to 14.49 months
  Eye disorders, median duration: 1.02 months
Range 0.03 months to 20.93 months
  Peripheral sensory neuropathy, median time to onset: 0.49 months
range: 0.03 months to 11.99 months
  Ataxia, median duration: 0.66 months
range: 0.03 months to 21.59 months
  Eye disorders, median time to onset: 1.87 months
range: 0.03 months to 28.19 months
  Ataxia, median time to onset: 0.36 months
range: 0.07 months to 6.01 months
  Peripheral sensory neuropathy, median duration: 0.76 months
